Measured values reported in US20180155344A1, “TRICYCLIC PIPERIDINE COMPOUNDS” (ACTELION PHARMACEUTICALS LTD, priority 2015, published 2018).

Target: T1, human TPH1 (Homo sapiens, UniProt P17752)
T1 sequence (P17752 1-444): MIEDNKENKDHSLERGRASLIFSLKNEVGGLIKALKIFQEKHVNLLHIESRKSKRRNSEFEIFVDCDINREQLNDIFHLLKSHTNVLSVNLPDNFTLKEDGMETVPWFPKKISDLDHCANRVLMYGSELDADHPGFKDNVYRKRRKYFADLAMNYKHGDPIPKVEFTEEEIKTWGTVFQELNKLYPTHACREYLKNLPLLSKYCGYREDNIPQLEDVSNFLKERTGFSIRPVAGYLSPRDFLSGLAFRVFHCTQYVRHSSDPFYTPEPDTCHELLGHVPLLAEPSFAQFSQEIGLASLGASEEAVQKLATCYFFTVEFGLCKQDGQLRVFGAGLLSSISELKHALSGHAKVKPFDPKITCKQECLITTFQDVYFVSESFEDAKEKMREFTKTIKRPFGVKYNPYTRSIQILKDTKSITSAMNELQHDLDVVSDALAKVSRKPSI
Assay: biochemical
How it was run: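 Inhibition is derived from 5-hydroxy-L-tryptophan fluorescence (540 nm emission, 300 nm excitation) after perchloric acid stop, relative to DMSO vehicle. Recombinant full-length human enzyme (40-80 nM) reacts with 40 μM tryptophan plus 100 μM methyltetrahydropterin, pH 7.6 Tris/DTT/catalase, 15° C, 60 min.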

Structure (SMILES) | IC50 [nM]
COc1ccc(C2c3c(nc4cc(C(F)(F)F)ccn34)CCN2C(=O)COc2cc(C(F)(F)F)ccc2Cl)cc1OC (stereo not shown) [Example 3.1.4] | 202
COc1ccc(C2c3c(nc4cc(C(F)(F)F)ccn34)CCN2C(=O)COc2ccccc2C)cc1OC (stereo not shown) [Example 3.1.5] | 153
COc1ccc(C2c3c(nc4cc(C(F)(F)F)ccn34)CCN2C(=O)COc2ccc(C)cc2)cc1OC (stereo not shown) [Example 3.1.6, 1-(1-(3,4-dimethoxyphenyl)-7-(trifluoromethyl)-3,4-dihydroimidazo[1,2-a:5,4-c′]dipyridin-2(1H)-yl)-2-(p-tolyloxy)ethan-1-one] | 71
COc1ccc(C2c3c(nc4cc(C(F)(F)F)ccn34)CCN2C(=O)COc2ccc(C(F)(F)F)cc2)cc1OC (stereo not shown) [Example 3.1.8] | 132
COc1ccc(C2c3c(nc4cc(C(F)(F)F)ccn34)CCN2C(=O)COc2cccc(C(F)(F)F)c2)cc1OC (stereo not shown) [Example 3.1.9] | 422
COc1ccc(C2c3c(nc4cc(C(F)(F)F)ccn34)CCN2C(=O)COc2ccc(OC(F)(F)F)cc2)cc1OC (stereo not shown) [Example 3.1.11] | 199
COc1ccc(C2c3c(nc4cc(C(F)(F)F)ccn34)CCN2C(=O)COc2cc(F)ccc2Cl)cc1OC (stereo not shown) [Example 3.1.14] | 103
COc1ccc(C2c3c(nc4cc(C(F)(F)F)ccn34)CCN2C(=O)COc2cccnc2C)cc1OC (stereo not shown) [Example 3.1.16] | 266
COc1ccc(C2c3c(nc4cc(C(F)(F)F)ccn34)CCN2C(=O)COc2cnccc2Cl)cc1OC (stereo not shown) [Example 3.1.18] | 235
COc1ccc(C2c3c(nc4cc(C(F)(F)F)ccn34)CCN2C(=O)COc2ccc3ncccc3c2)cc1OC (stereo not shown) [Example 3.1.19] | 117
COc1ccc(C2c3c(nc4cc(C(F)(F)F)ccn34)CCN2C(=O)COc2ccc3c(c2)OCO3)cc1OC (stereo not shown) [Example 3.1.21] | 116
COc1ccc(C2c3c(nc4cc(C(F)(F)F)ccn34)CCN2C(=O)COc2cnc3ccccc3c2)cc1OC (stereo not shown) [Example 3.1.22] | 165
COc1ccc(C2c3c(nc4cc(C(F)(F)F)ccn34)CCN2C(=O)COc2cnc3c(c2)ncn3C)cc1OC (stereo not shown) [Example 3.1.23] | 382
COc1ccc(C2c3c(nc4cc(C(F)(F)F)ccn34)CCN2C(=O)COc2cc(-c3ccccc3)nn2C)cc1OC (stereo not shown) [Example 3.1.24] | 157
COc1ccc(C2c3c(nc4cc(C(F)(F)F)ccn34)CCN2C(=O)COc2nn(C)c(C(F)(F)F)c2Cl)cc1OC (stereo not shown) [Example 3.1.25, 2-((4-chloro-1-methyl-5-(trifluoromethyl)-1H-pyrazol-3-yl)oxy)-1-(1-(3,4-dimethoxyphenyl)-7-(trifluoromethyl)-3,4-dihydroimidazo[1,2-a:5,4-c′]dipyridin-2(1H)-yl)ethan-1-one] | 78
COc1ccc(C2c3c(nc4cc(C(F)(F)F)ccn34)CCN2C(=O)COc2ccc(CN3CCOCC3)nc2Cl)cc1OC (stereo not shown) [Example 3.1.27, 2-((2-chloro-6-(morpholinomethyl)pyridin-3-yl)oxy)-1-(1-(3,4-dimethoxyphenyl)-7-(trifluoromethyl)-3,4-dihydroimidazo[1,2-a:5,4-c′]dipyridin-2(1H)-yl)ethan-1-one] | 84
CCc1ccccc1OCC(=O)N1CCc2nc3cc(C(F)(F)F)ccn3c2C1c1ccc(OC)c(OC)c1 (stereo not shown) [Example 3.1.28] | 118
COc1ccc(C2c3c(nc4cc(C(F)(F)F)ccn34)CCN2C(=O)COc2cccnc2C2CC2)cc1OC (stereo not shown) [Example 3.1.35] | 336
O=C(COc1ccc2ccccc2c1)N1CCc2nc3cc(C(F)(F)F)ccn3c2C1c1cccnc1F (stereo not shown) [Example 3.2.2, 1-(1-(2-fluoropyridin-3-yl)-7-(trifluoromethyl)-3,4-dihydroimidazo[1,2-a:5,4-c′]dipyridin-2(1H)-yl)-2-(naphthalen-2-yloxy)ethan-1-one] | 82

These reach a lower IC50. Values come first.

IC50 [nM] | Structure (SMILES)
30 | COc1ccc(C2c3c(nc4cc(C(F)(F)F)ccn34)CCN2C(=O)COc2ccc(Cl)cc2Cl)cc1OC (stereo not shown) [Example 3.1.2, 2-(2,4-Dichlorophenoxy)-1-(1-(3,4-dimethoxyphenyl)-7-(trifluoromethyl)-3,4-dihydroimidazo[1,2-a:5,4-c′]dipyridin-2(1H)-yl)ethan-1-one]
36 | COc1ccc(C2c3c(nc4cc(C(F)(F)F)ccn34)CCN2C(=O)COc2ccc(C(F)(F)F)cc2Cl)cc1OC (stereo not shown) [Example 3.1.3, 2-(2-chloro-4-(trifluoromethyl)phenoxy)-1-(1-(3,4-dimethoxyphenyl)-7-(trifluoromethyl)-3,4-dihydroimidazo[1,2-a:5,4-c′]dipyridin-2(1H)-yl)ethan-1-one]
29 | COc1ccc(C2c3c(nc4cc(C(F)(F)F)ccn34)CCN2C(=O)COc2ccccc2C(F)(F)F)cc1OC (stereo not shown) [Example 3.1.7, 1-(1-(3,4-dimethoxyphenyl)-7-(trifluoromethyl)-3,4-dihydroimidazo[1,2-a:5,4-c′]dipyridin-2(1H)-yl)-2-(2-(trifluoromethyl)phenoxy)ethan-1-one]
64 | COc1ccc(C2c3c(nc4cc(C(F)(F)F)ccn34)CCN2C(=O)COc2cc(C)ccc2Cl)cc1OC (stereo not shown) [Example 3.1.12, 2-(2-chloro-5-methylphenoxy)-1-(1-(3,4-dimethoxyphenyl)-7-(trifluoromethyl)-3,4-dihydroimidazo[1,2-a:5,4-c′]dipyridin-2(1H)-yl)ethan-1-one]
19 | COc1ccc(C2c3c(nc4cc(C(F)(F)F)ccn34)CCN2C(=O)COc2cccc(C(F)(F)F)c2Cl)cc1OC (stereo not shown) [Example 3.1.13, 2-(2-chloro-3-(trifluoromethyl)phenoxy)-1-(1-(3,4-dimethoxyphenyl)-7-(trifluoromethyl)-3,4-dihydroimidazo[1,2-a:5,4-c′]dipyridin-2(1H)-yl)ethan-1-one]
67 | COc1ccc(C2c3c(nc4cc(C(F)(F)F)ccn34)CCN2C(=O)COc2cccnc2Cl)cc1OC (stereo not shown) [Example 3.1.15, 2-((2-chloropyridin-3-yl)oxy)-1-(1-(3,4-dimethoxyphenyl)-7-(trifluoromethyl)-3,4-dihydroimidazo[1,2-a:5,4-c′]dipyridin-2(1H)-yl)ethan-1-one]
20 | COc1ccc(C2c3c(nc4cc(C(F)(F)F)ccn34)CCN2C(=O)COc2cccnc2Br)cc1OC (stereo not shown) [Example 3.1.17, 2-((2-bromopyridin-3-yl)oxy)-1-(1-(3,4-dimethoxyphenyl)-7-(trifluoromethyl)-3,4-dihydroimidazo[1,2-a:5,4-c′]dipyridin-2(1H)-yl)ethan-1-one]
19 | COc1ccc(C2c3c(nc4cc(C(F)(F)F)ccn34)CCN2C(=O)COc2ccc3ccncc3c2)cc1OC (stereo not shown) [Example 3.1.20, 1-(1-(3,4-dimethoxyphenyl)-7-(trifluoromethyl)-3,4-dihydroimidazo[1,2-a:5,4-c′]dipyridin-2(1H)-yl)-2-(isoquinolin-7-yloxy)ethan-1-one]
17 | COc1ccc(C2c3c(nc4cc(C(F)(F)F)ccn34)CCN2C(=O)COc2ccc(CN3CCOCC3)cc2Cl)cc1OC (stereo not shown) [Example 3.1.26, 2-(2-chloro-4-(morpholinomethyl)phenoxy)-1-(1-(3,4-dimethoxyphe-nyl)-7-(trifluoromethyl)-3,4-dihydroimidazo[1,2-a:5,4-c′]dipyridin-2(1H)-yl)ethan-1-one]
64 | CCc1cc(Cl)ccc1OCC(=O)N1CCc2nc3cc(C(F)(F)F)ccn3c2C1c1ccc(OC)c(OC)c1 (stereo not shown) [Example 3.1.29, 2-(4-chloro-2-ethylphenoxy)-1-(1-(3,4-dimethoxyphenyl)-7-(trifluoromethyl)-3,4-dihydroimidazo[1,2-a:5,4-c′]dipyridin-2(1H)-yl)ethan-1-one]
36 | CCc1ncccc1OCC(=O)N1CCc2nc3cc(C(F)(F)F)ccn3c2C1c1ccc(OC)c(OC)c1 (stereo not shown) [Example 3.1.30, 1-(1-(3,4-dimethoxyphenyl)-7-(trifluoromethyl)-3,4-dihydroimidazo[1,2-a:5,4-c′]dipyridin-2(1H)-yl)-2-((2-ethylpyridin-3-yl)oxy)ethan-1-one]
43 | CCc1cc(Br)ccc1OCC(=O)N1CCc2nc3cc(C(F)(F)F)ccn3c2C1c1ccc(OC)c(OC)c1 (stereo not shown) [Example 3.1.31, 2-(4-bromo-2-ethylphenoxy)-1-(1-(3,4-dimethoxyphenyl)-7-(trifluoromethyl)-3,4-dihydroimidazo[1,2-a:5,4-c′]dipyridin-2(1H)-yl)ethan-1-one]
21 | CCc1cc(N2CCN(C)CC2)ccc1OCC(=O)N1CCc2nc3cc(C(F)(F)F)ccn3c2C1c1ccc(OC)c(OC)c1 (stereo not shown) [Example 3.1.32, 1-(1-(3,4-dimethoxyphenyl)-7-(trifluoromethyl)-3,4-dihydroimidazo[1,2-a:5,4-c′]dipyridin-2(1H)-yl)-2-(2-ethyl-4-(4-methylpiperazin-1-yl)phenoxy)ethan-1-one]
12 | CCc1cc(N2CCOCC2)ccc1OCC(=O)N1CCc2nc3cc(C(F)(F)F)ccn3c2C1c1ccc(OC)c(OC)c1 (stereo not shown) [Example 3.1.33, 1-(1-(3,4-dimethoxyphenyl)-7-(trifluoromethyl)-3,4-dihydroimidazo[1,2-a:5,4-c′]dipyridin-2(1H)-yl)-2-(2-ethyl-4-morpholinophenoxy)ethan-1-one]
43 | O=C(COc1ccc(CN2CCOCC2)cc1Cl)N1CCc2nc3cc(C(F)(F)F)ccn3c2C1c1cccnc1F (stereo not shown) [Example 3.2.1, 2-(2-chloro-4-(morpholinomethyl)phenoxy)-1-(1-(2-fluoropyridin-3-yl)-7-(trifluoromethyl)-3,4-dihydroimidazo[1,2-a:5,4-c′]dipyridin-2(1H)-yl)ethan-1-one]
